Source: US12466821B2 (Novartis AG, priority 2018, dated 2025)

Assays:
[1] = target: human CMV DNA polymerase UL54 (Human cytomegalovirus (strain AD169) (HHV-5) (Human herpesvirus 5), UniProt P08546); test: CMV polymerase biochemical assay (molecular beacon-based)
Protocol: (§1) Both human CMV DNA polymerase UL54 and human HSV DNA polymerase UL30 were produced as N-terminal MBP fusion of the full length, wild type recombinant proteins in order to enhance soluble expression in insect cell expression system. The proteins were expressed in sf9 insect cells via baculovirus transduction and cells were harvested after 48 hours. The soluble proteins were purified using the standard Ni-IMAC purification strategy via the N-terminal hexa-Histidine tag, followed by heparin affinity chromatography. Both of the final MBP fusion proteins were more than 90% pure and the yield of UL54 was up to 1.8 mg per liter culture while UL30 was up to 15 mg per liter culture. All purification steps were performed on ice, with buffers chilled on ice and FPLC fraction collectors set at 6° C. […] UL30 protein was stored in buffer containing 20 mM HEPES, pH7.0, 420 mM NaCl, 20% glycerol, 6 mM Imidazole, and 0.8 mM DTT at−80° C.
(§2) DNA polymerase activity was measured using a molecular beacon-based assay, as described in Ma et. al.
(§3) 100 pM CMV polymerase or 625 pM HSV polymerase was added to a buffer containing 20 mM Tris, pH=7.5, 100 mM NaCl, 10 mM MgCl2, 0.01% Tween-20, 0.5 mM EDTA, 10% Sucrose and 1 mM DTT. The inhibitor was pre-incubated with the polymerase for 30 minutes at room temperature. Reactions were initiated by the addition of a mixture containing 1.25 uM dATP, 1.25 uM dCTP, 1.25 uM dTTP, 1.25 uM dGTP, 200 nM Primer B (5′-GAC GGG AAG-3′5′-GAC GGG AAG-3′) and 100 nM molecular beacon (5′-5,6-FAM-CCTCTCCGTGTCTTGTACTTCCCGTCAGAGAGG-BHQ1-3′). For human CMV polymerase the reactions were incubated for 60 minutes at room temperature. For HSV polymerase the reactions were incubated for 20 minutes at room temperature. The reactions were then read on a Perkin-Elmer EnVision 2101 reader (fluorescence) using an excitation of 480 nm and emission of 535 nm. 1050s were determined using an internal Novartis software (Helios).
as §3, with “nm.” for “nm. 1050s were determined using an internal Novartis software (Helios).”

[2] = target: human HSV DNA polymerase UL30 (Human herpesvirus 1 (strain 17) (HHV-1) (Human herpes simplex virus 1), UniProt P04293); test: HSV polymerase biochemical assay (molecular beacon-based)
Protocol: as §1, §2, §3
as §3, with “nm.” for “nm. 1050s were determined using an internal Novartis software (Helios).”

[3] = test system: Luciferase-encoding HCMV, AD169 strain; test: CMV Luciferase assay (cellular herpesvirus replication); format: cell-based; settings: Human betaherpesvirus 5, AD169, read-out: CMV-Luc Cellular EC50
Protocol: For all viral assays, 10 mM DMSO stock compound solutions were serially diluted in DMSO at 3.16 fold dilutions in 96-well clear round bottom plates. Compounds were then diluted in assay media at 1:20 and subsequently 10 μL of these dilutions were added to cells for final compound concentrations ranging either from 0.0159 μM to 50 μM in 0.5% DMSO/assay media, or from 0.00318 to 10 μM in 0.5% DMSO/assay media.
The assay uses a Luciferase-encoding HCMV. Luciferase is expressed under the control of a late viral gene (pp28) promoter in the AD169 strain, so that expression of the reporter is dependent on viral DNA replication. Compounds that affect any stage from viral entry to DNA replication result in a change in luciferase levels.
Viral replication in the presence or absence of compounds was measured by luciferase activity according to the following procedure: Neo-natal normal human dermal fibroblast cells (NN-NHDF, from ATCC cat #201-010) were seeded at 9,000 cells/well in 96-well white solid bottom plate at 80 uL/well in assay media: 2% FBS, 4 mM GlutaMax® (Invitrogen cat #35050) in DMEM/high glucose/no glutamine/no phenol red media (Invitrogen cat #31053). After 2 hrs at 37° C., 10 uL of compound diluted in assay media or 5% DMSO (final 0.5% DMSO/well) was added and the plates returned to 37° C. One hour later, 10 uL of virus diluted in assay media was added at a final Multiplicity of infection (MOI) of 1. Plates were incubated at 37° C. for 72 hrs. At 72 hours post-infection (hpi), plates were equilibrated to room temperature. After 25 min, 100 uL Renilla-Glo® Luciferase Assay Reagent (Promega cat # E2750) was added to each well and incubated for 10 min. Plates were covered to protect from light. Luminescence was measured on the PHERAstar FS®.
The following controls were included in the data analysis: No virus, no compound (0.5% DMSO)=IC (maximal inhibitory control); Virus, no compound (0.5% DMSO)=NC (neutral control). Data were analyzed using an internal Novartis software (Helios). The means of the controls (NC, IC) were used to normalize the results to a % scale using the formula: % Control=100−(100*(Sample value−NC)/(IC−NC)).
For each compound, the software derived an EC50 using a 4-parameter logistical model.

SMILES | IC50 [1] [nM] | IC50 [2] [nM] | EC50 [3] [nM]
NS(=O)(=O)C1(CN2CCn3c(ccc(C(=O)NCc4ccc(Cl)cc4)c3=O)C2=O)CC1 [Example 72-2, N-(4-chlorobenzyl)-1,6-dioxo-2-((1-sulfamoylcyclopropyl)methyl)-2,3,4,6-tetrahydro-1H-pyrido[1,2-a]pyrazine-7-carboxamide] | 1.2 | 26.4 | 50.2
O=C(NCc1ccc(Cl)cc1)c1ccc2n(c1=O)CCN(CC1(S(=O)(=O)C3CCNC3)CC1)C2=O (stereo not drawn) [Example 80-1, N-(4-chlorobenzyl)-1,6-dioxo-2-((1-(pyrrolidin-3-ylsulfonyl)cyclopropyl)methyl)-2,3,4,6-tetrahydro-1H-pyrido[1,2-a]pyrazine-7-carboxamide] | 3.4 | 97.6 | 216
C[S@+]([O-])C1(CN2CCn3c(ccc(C(=O)NCc4ccc(Cl)cc4)c3=O)C2=O)CC1 (single isomer, unassigned) [Example 67-3, N-(4-chlorobenzyl)-2-((1-(methylsulfinyl)cyclopropyl)methyl)-1,6-dioxo-2,3,4,6-tetrahydro-1H-pyrido[1,2-a]pyrazine-7-carboxamide] | 292 | 13100 | 7250
CS(=O)(=O)CCCN1CCn2c(c(C#CCO)cc(C(=O)NCc3ccc(Cl)cc3)c2=O)C1=O [Example 156] | 913 | 2110 | 50000
O=C(NCc1ccc(Cl)cc1)c1ccc2n(c1=O)CCN(CC1(N3CCCC3=O)CC1)C2=O [Example 201, N-(4-chlorobenzyl)-1,6-dioxo-2-((1-(2-oxopyrrolidin-1-yl)cyclopropyl)methyl)-1,3,4,6-tetrahydro-2H-pyrido[1,2-a]pyrazine-7-carboxamide] | 182 | 4060 | 4810
C[S@](=N)(=O)C1(CN2CCn3c(ccc(C(=O)NCc4ccc(Cl)cc4)c3=O)C2=O)CC1 (single isomer, unassigned) [Example 96-2] | 66.5 | 1920 | 847
CS(=N)(=O)C1(CN2CCn3c(ccc(C(=O)NCc4ccc(Cl)cc4)c3=O)C2=O)CC1 (stereo not drawn) [Example 95, N-(4-chlorobenzyl)-2-((1-(S-methylsulfonimidoyl)cyclopropyl)methyl)-1,6-dioxo-2,3,4,6-tetrahydro-1H-pyrido[1,2-a]pyrazine-7-carboxamide] | 16.6 | 722 | 263
Cc1cc(C(=O)NCc2ccc(C#N)c(F)c2)c(=O)n2c1C(=O)N(CC1(S(C)(=O)=O)CC1)CC2 [Example 86-2] | 4.6 | 276 | 226
CN(CCN1CCn2c(c(C3CC3)cc(C(=O)NCc3ccc(Cl)cc3)c2=O)C1=O)S(C)(=O)=O [Example 128, N-(4-chlorobenzyl)-9-cyclopropyl-2-(2-(N-methylmethylsulfonamido)ethyl)-1,6-dioxo-1,3,4,6-tetrahydro-2H-pyrido[1,2-a]pyrazine-7-carboxamide] | 153 | 2560 | 2380
CC(C)S(=O)(=O)C1(CN2CCn3c(ccc(C(=O)NCc4ccc(C#N)cc4)c3=O)C2=O)CC1 [Example 32] | 1.6 | 49.5 | 52
N#Cc1ccc(CNC(=O)c2ccc3n(c2=O)CCN(CC2(S(=O)(=O)C4CCC4)CC2)C3=O)cc1F [Example 79-2] | 2 | 65.4 | 34.3
CS(=O)(=O)CCCN1CCn2c(c(CF)cc(C(=O)NCc3ccc(Cl)cc3)c2=O)C1=O [Example 142] | 351 | 2160 | 
CCN1CCn2c(ccc(C(=O)NCc3ccc(Cl)cc3)c2=O)C1=O [Example 113, N-(4-chlorobenzyl)-2-ethyl-1,6-dioxo-2,3,4,6-tetrahydro-1H-pyrido[1,2-a]pyrazine-7-carboxamide] | 3130 | 23600 | 
COC1(S(=O)(=O)C2(CN3CCn4c(ccc(C(=O)NCc5ccc(Cl)cc5)c4=O)C3=O)CC2)CC1 [Example 188] | 0.8 |  | 11.6
CC(CCO)S(=O)(=O)C1(CN2CCn3c(ccc(C(=O)NCc4ccc(Cl)cc4)c3=O)C2=O)CC1 (stereo not drawn) [Example 4, N-(4-chlorobenzyl)-2-((1-((4-hydroxybutan-2-yl)sulfonyl)cyclopropyl)methyl)-1,6-dioxo-2,3,4,6-tetrahydro-1H-pyrido[1,2-a]pyrazine-7-carboxamide] | 0.4 |  | 40.4
CS(=O)(=O)CCCN1CCn2c(c(Br)cc(C(=O)NCc3ccc(Cl)cc3)c2=O)C1=O [Example 123, 9-bromo-N-(4-chlorobenzyl)-2-(3-(methylsulfonyl)propyl)-1,6-dioxo-1,3,4,6-tetrahydro-2H-pyrido[1,2-a]pyrazine-7-carboxamide] | 373 | 1890 | 
CN(CCN1CCn2c(c(Br)cc(C(=O)NCc3ccc(Cl)cc3)c2=O)C1=O)S(C)(=O)=O [Example 122, 9-bromo-N-(4-chlorobenzyl)-2-(2-(N-methylmethylsulfonamido)ethyl)-1,6-dioxo-1,3,4,6-tetrahydro-2H-pyrido[1,2-a]pyrazine-7-carboxamide] | 350 | 5050 | 
O=C(NCc1ccc(Cl)cc1)c1ccc2n(c1=O)CCN(CC1(C(=O)N3CCOCC3)CC1)C2=O [Example 211] |  |  | 7810
Cc1cc(C(=O)NCc2ccc(Cl)cc2)c(=O)n2c1C(=O)N(CCC1(S(C)(=O)=O)CC1)CC2 [Example 151] |  |  | 10000
CN1CCn2c(ccc(C(=O)NCc3ccc(Cl)cc3)c2=O)C1=O [Example 114, N-(4-chlorobenzyl)-2-methyl-1,6-dioxo-2,3,4,6-tetrahydro-1H-pyrido[1,2-a]pyrazine-7-carboxamide] | 3990 | 25000 | 
CN(C)S(=O)(=O)C1(CN2CCn3c(ccc(C(=O)NCc4ccc(C#N)cc4)c3=O)C2=O)CC1 [Example 90-2] |  |  | 34
CCOC(=O)C1(CN2CCn3c(ccc(C(=O)NCc4ccc(Cl)cc4)c3=O)C2=O)CC1 [Example 207, ethyl 1-((7-((4-chlorobenzyl)carbamoyl)-1,6-dioxo-1,3,4,6-tetrahydro-2H-pyrido[1,2-a]pyrazin-2-yl)methyl)cyclopropane-1-carboxylate] |  |  | 3790
